{
  "source": "ChEMBL document CHEMBL1130732",
  "about": "“Homologated aza analogs of arabinose as antimycobacterial agents” (1998)",
  "key": {"[1]": {"system": "Mycobacterium tuberculosis", "assay": "Minimum inhibitory concentration against Mycobacterium tuberculosis H37Ra", "assay_type": "functional"}, "[2]": {"system": "Mycobacterium tuberculosis", "assay": "Minimum inhibitory concentration against Mycobacterium tuberculosis H37Ra; value ranges from >12.8-<=128 ug/mL", "assay_type": "functional"}, "[3]": {"system": "Mycobacterium tuberculosis", "assay": "Minimum inhibitory concentration against Mycobacterium tuberculosis H37Ra; value ranges from 32-128 ug/mL", "assay_type": "functional"}, "Mycobacterium avium [4]": {"system": "Mycobacterium avium", "assay": "Anti-MAC activity against Mycobacterium avium macrophage; cytotoxic to macrophages", "assay_type": "functional, organism-based"}, "[5]": {"system": "Mycobacterium tuberculosis", "assay": "Minimum bactericidal concentration against Mycobacterium tuberculosis H37Ra", "assay_type": "functional"}, "[6]": {"system": "Mycobacterium tuberculosis", "assay": "Percent inhibition of compound against Mycobacterium tuberculosis H37Ra at 12.5 ug/mL concentration in BACTEC assay", "assay_type": "functional"}, "Mycobacterium avium [7]": {"system": "Mycobacterium avium", "assay": "Anti-MAC activity against Mycobacterium avium macrophage was determined", "assay_type": "functional"}, "[8]": {"system": "Mycobacterium tuberculosis", "assay": "Minimum inhibitory concentration against Mycobacterium tuberculosis H37Ra; partial inhibition at 128 ug/mL", "assay_type": "functional"}, "[9]": {"system": "Mycobacterium tuberculosis", "assay": "Minimum inhibitory concentration against Mycobacterium tuberculosis H37Ra; value ranges from […] ug/mL", "assay_type": "functional"}, "[10]": {"system": "Mycobacterium tuberculosis", "assay": "Minimum bactericidal concentration against Mycobacterium tuberculosis H37Ra; value ranges from 64->128 ug/mL", "assay_type": "functional"}, "[11]": {"system": "Mycobacterium tuberculosis", "assay": "Minimum inhibitory concentration against Mycobacterium tuberculosis H37Ra; value ranges from 16-32 ug/mL", "assay_type": "functional"}, "Mycobacterium avium [12]": {"system": "Mycobacterium avium", "assay": "Anti-MAC activity against Mycobacterium avium macrophage; I means inactive in macrophages", "assay_type": "functional, organism-based"}, "[13]": {"system": "Mycobacterium tuberculosis", "assay": "Minimum inhibitory concentration against Mycobacterium tuberculosis H37Ra; value ranges from 16-64 ug/mL", "assay_type": "functional"}, "[14]": {"system": "Mycobacterium tuberculosis", "assay": "Minimum inhibitory concentration against Mycobacterium tuberculosis H37Ra; […]", "assay_type": "functional"}},
  "note": "Activity calls are given as the source filed them. The calls are words filed in the database; no cut-off is given here.",
  "data": [
    {"smiles": "COc1ccccc1SCC1NC(CO)C(O)C1O", "note": "(stereo not given)", "values": [
      {"measurement": "MIC", "setting": "[1]", "value": "> 128", "unit": "µg/mL"}
    ]},
    {"smiles": "CCCCCCCCCCCCS(=O)(=O)C[C@H]1NC(CO)C(O)C1O", "note": "(stereo not given in full)", "values": [
      {"measurement": "MIC", "setting": "[2]", "value": "> 12.8", "unit": "µg/mL"}
    ]},
    {"smiles": "CCCCCCCCCCCCS(=O)(=O)CC1NC(CO)C(O)C1O", "note": "(stereo not given)", "values": [
      {"measurement": "MIC", "setting": "[3]", "value": 32, "unit": "µg/mL"},
      {"measurement": "Activity", "setting": "Mycobacterium avium [4]", "value": "Cytotoxic"},
      {"measurement": "MBC", "setting": "[5]", "value": "≥ 128", "unit": "µg/mL"}
    ]},
    {"smiles": "OCC1NC(CSc2ccccc2)C(O)C1O", "note": "(stereo not given)", "values": [
      {"measurement": "MIC", "setting": "[1]", "value": "> 128", "unit": "µg/mL"},
      {"measurement": "inhibition at 12.5 µg/mL", "setting": "[6]", "value": 0, "unit": "%"},
      {"measurement": "Activity", "setting": "Mycobacterium avium [7]", "value": 4, "unit": "µg/mL"}
    ]},
    {"smiles": "N#Cc1ccc(SCC2NC(CO)C(O)C2O)cc1", "note": "(stereo not given)", "values": [
      {"measurement": "MIC", "setting": "[1]", "value": "> 128", "unit": "µg/mL"},
      {"measurement": "inhibition at 12.5 µg/mL", "setting": "[6]", "value": 5, "unit": "%"}
    ]},
    {"smiles": "OCC1NC(CSc2ccncc2)C(O)C1O", "note": "(stereo not given)", "values": [
      {"measurement": "MIC", "setting": "[1]", "value": "> 128", "unit": "µg/mL"},
      {"measurement": "inhibition at 12.5 µg/mL", "setting": "[6]", "value": 6, "unit": "%"}
    ]},
    {"smiles": "OCC1NC(CSCc2ccccc2)C(O)C1O", "note": "(stereo not given)", "values": [
      {"measurement": "MIC", "setting": "[1]", "value": "> 128", "unit": "µg/mL"}
    ]},
    {"smiles": "OCC1NC(CSc2ccc3ccccc3c2)C(O)C1O", "note": "(stereo not given)", "values": [
      {"measurement": "MIC", "setting": "[8]", "value": "> 128", "unit": "µg/mL"},
      {"measurement": "inhibition at 12.5 µg/mL", "setting": "[6]", "value": 18, "unit": "%"}
    ]},
    {"smiles": "CC(C)=CCC/C(C)=C\\CSCC1NC(CO)C(O)C1O", "note": "(stereo not given)", "values": [
      {"measurement": "MIC", "setting": "[9]", "value": 64, "unit": "µg/mL"},
      {"measurement": "Activity", "setting": "Mycobacterium avium [4]", "value": "Cytotoxic"}
    ]},
    {"smiles": "CCCCCCCCCCCCSCC1NC(CO)C(O)C1O", "note": "(stereo not given)", "values": [
      {"measurement": "Activity", "setting": "Mycobacterium avium [4]", "value": "Cytotoxic"},
      {"measurement": "MBC", "setting": "[10]", "value": 64, "unit": "µg/mL"},
      {"measurement": "MIC", "setting": "[11]", "value": 16, "unit": "µg/mL"}
    ]},
    {"smiles": "O=S(=O)(CC1NC(CO)C(O)C1O)c1ccccc1", "note": "(stereo not given)", "values": [
      {"measurement": "MIC", "setting": "[1]", "value": "> 128", "unit": "µg/mL"},
      {"measurement": "inhibition at 12.5 µg/mL", "setting": "[6]", "value": 6, "unit": "%"},
      {"measurement": "Activity", "setting": "Mycobacterium avium [12]", "value": "inactive"}
    ]},
    {"smiles": "OC[C@H]1O[C@@H](CSc2ccccc2)[C@H](O)[C@@H]1O", "values": [
      {"measurement": "MIC", "setting": "[1]", "value": "> 128", "unit": "µg/mL"},
      {"measurement": "Activity", "setting": "Mycobacterium avium [7]", "value": ">64", "unit": "µg/mL"}
    ]},
    {"smiles": "CCCCCCCCCCSCC1NC(CO)C(O)C1O", "note": "(stereo not given)", "values": [
      {"measurement": "MIC", "setting": "[3]", "value": 32, "unit": "µg/mL"},
      {"measurement": "MBC", "setting": "[5]", "value": "≥ 128", "unit": "µg/mL"}
    ]},
    {"smiles": "COc1ccc(SCC2NC(CO)C(O)C2O)cc1", "note": "(stereo not given)", "values": [
      {"measurement": "MIC", "setting": "[1]", "value": "> 128", "unit": "µg/mL"}
    ]},
    {"smiles": "[O-][S+](CC1NC(CO)C(O)C1O)c1ccccc1", "note": "(stereo not given)", "values": [
      {"measurement": "MIC", "setting": "[1]", "value": "> 128", "unit": "µg/mL"},
      {"measurement": "inhibition at 12.5 µg/mL", "setting": "[6]", "value": 18, "unit": "%"},
      {"measurement": "Activity", "setting": "Mycobacterium avium [12]", "value": "inactive"}
    ]},
    {"smiles": "CCCCCCCCCCCCCCCCSCC1NC(CO)C(O)C1O", "note": "(stereo not given)", "values": [
      {"measurement": "MIC", "setting": "[13]", "value": 16, "unit": "µg/mL"},
      {"measurement": "MBC", "setting": "[10]", "value": 64, "unit": "µg/mL"}
    ]},
    {"smiles": "CCCCCCCCCCCC[S+]([O-])CC1NC(CO)C(O)C1O", "note": "(stereo not given)", "values": [
      {"measurement": "MIC", "setting": "[14]", "value": 32, "unit": "µg/mL"},
      {"measurement": "MBC", "setting": "[5]", "value": "≥ 128", "unit": "µg/mL"}
    ]}
  ]
}
